Results on 17 compounds are retold here after US11596639B2, “Substituted indole Mcl-1 inhibitors” (Vanderbilt University, priority 2016, dated 2023).

The structures appear in SMILES notation. Where two headings read alike, the source gives them in different places. A value given as a limit tells only on which side of the number the result lay.

The target of assay [1] is Mcl-1 (Homo sapiens (Human), UniProt Q07820). Description: Fluorescence polarization anisotropy (FPA) competition assay, FITC-Bak or FITC-Bim BH3 peptide. The format is binding. Conditions: read-out: Ki for Inhibition of Mcl-1 by FPA assay.
Sequence of Mcl-1 (Q07820 172-327): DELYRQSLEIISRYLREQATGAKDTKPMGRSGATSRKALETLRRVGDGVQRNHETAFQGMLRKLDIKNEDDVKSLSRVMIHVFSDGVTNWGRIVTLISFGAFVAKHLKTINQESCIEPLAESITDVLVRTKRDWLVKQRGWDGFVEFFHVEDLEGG
For assay [2], the system named is H929 human cancer cell lines. Briefly: Cellular viability / proliferation (Cell TiterGlo, 72 h). The format is cell-based. The method in brief: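 Compounds were added as 2-fold serial dilutions from 50 μM (final DMSO <1%) to H929 cells seeded 1,000 per well in 10% FBS medium one day earlier.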
Where [3] appears, read: Homo sapiens, NCI-H929, 72 h, read-out: GI50 on cellular proliferation of H929 human cancer cell lines, H929 cells, 72 h, Cell TiterGlo, 10% FBS.

With `Cc1nn(C)c(C)c1-c1c(Cl)ccc2c(CCCOc3ccc(F)cc3)c3n(c12)[C@H](C)CN(c1cn(C)c2ccc(C(=O)O)cc12)C3=O` [Example 410, (R)-3-(7-Chloro-10-(3-(4-fluorophenoxy)propyl)-4-methyl-1-oxo-6-(1,3,5-trimethyl-1H-pyrazol-4-yl)-3,4-dihydropyrazino[1,2-a]indol-2(1H)-yl)-1-methyl-1H-indole-5-carboxylic acid], the Ki in assay [1] is 1.4 nM. In assay [2] (setting [3]), the GI50 came to 4000 nM.

Regarding `COc1ccc(N2C[C@@H](C)n3c(c(CCCOc4cc(C)c(Cl)c(C)c4)c4ccc(Cl)c(-c5c(C)nn(C)c5C)c43)C2=O)c2c1cc(C(N)=O)n2C` [Example 412, (R)-7-(7-Chloro-10-(3-(4-chloro-3,5-dimethylphenoxy)propyl)-4-methyl-1-oxo-6-(1,3,5-trimethyl-1H-pyrazol-4-yl)-3,4-dihydropyrazino[1,2-a]indol-2(1H)-yl)-4-methoxy-1-methyl-1H-indole-2-carboxamide], the Ki in assay [1] came out at 1.3 nM. In assay [2] (setting [3]), the GI50 was found to be 450 nM.

Regarding `Cc1cc(OCCCc2c3n(c4c(-c5c(C)nn(C)c5C)c(Cl)ccc24)[C@H](C)CN(c2ccnc4ccc(-c5nn[nH]n5)cc24)C3=O)cc(C)c1Cl` [Example 414, (R)-2-(6-(2H-Tetrazol-5-yl)quinolin-4-yl)-7-chloro-10-(3-(4-chloro-3,5-dimethylphenoxy)propyl)-4-methyl-6-(1,3,5-trimethyl-1H-pyrazol-4-yl)-3,4-dihydropyrazino[1,2-a]indol-1(2H)-one], the Ki in assay [1] is under 1 nM. The GI50 in assay [2] (setting [3]) was determined as 1400 nM.

`Cc1cc(N2C[C@@H](C)n3c(c(CCCOc4cc(C)c(Cl)c(C)c4)c4ccc(Cl)c(-c5c(C)nn(C)c5C)c43)C2=O)c2c(c1)cc(C(N)=O)n2Cc1ccccn1` [Example 415, (R)-7-(7-Chloro-10-(3-(4-chloro-3,5-dimethylphenoxy)propyl)-4-methyl-1-oxo-6-(1,3,5-trimethyl-1H-pyrazol-4-yl)-3,4-dihydropyrazino[1,2-a]indol-2(1H)-yl)-5-methyl-1-(pyridin-2-ylmethyl)-1H-indole-2-carboxamide]: the inhibition constant (Ki) in assay [1] came out at 3.4 nM. In addition, the GI50 in assay [2] (setting [3]) is 510 nM.

Turning to `Cc1cc(N2C[C@@H](C)n3c(c(CCCOc4cc(C)c(Cl)c(C)c4)c4ccc(Cl)c(-c5c(C)nc(CN6CCOCC6)nc5C)c43)C2=O)c2c(c1)cc(C(=O)O)n2C` [Example 416, (R)-7-(7-Chloro-10-(3-(4-chloro-3,5-dimethylphenoxy)propyl)-6-(4,6-dimethyl-2-(morpholinomethyl)pyrimidin-5-yl)-4-methyl-1-oxo-3,4-dihydropyrazino[1,2-a]indol-2(1H)-yl)-1,5-dimethyl-1H-indole-2-carboxylic acid], the Ki in assay [1] was under 1 nM. For the same compound, the GI50 in assay [2] (setting [3]) is under 200 nM.

`Cc1cc(OCCCc2c3n(c4c(-c5c(C)nn(C)c5C)c(Cl)ccc24)[C@H](C)CN(c2cccc4c(C(=O)O)c(C)n(C)c24)C3=O)cc(C)c1Cl` [Example 417, (R)-7-(7-Chloro-10-(3-(4-chloro-3,5-dimethylphenoxy)propyl)-4-methyl-1-oxo-6-(1,3,5-trimethyl-1H-pyrazol-4-yl)-3,4-dihydropyrazino[1,2-a]indol-2(1H)-yl)-1,2-dimethyl-1H-indole-3-carboxylic acid]: the Ki in assay [1] was determined as 1.3 nM. Also, in assay [2] (setting [3]), the GI50 amounted to 340 nM.

Turning to `Cc1ccnc(-c2ccc3c(c2)c(N2C[C@@H](C)n4c(c(CCCOc5cc(C)c(Cl)c(C)c5)c5ccc(Cl)c(-c6c(C)nn(C)c6C)c54)C2=O)cn3C)n1` [Example 418, (R)-7-Chloro-10-(3-(4-chloro-3,5-dimethylphenoxy)propyl)-4-methyl-2-(1-methyl-5-(4-methylpyrimidin-2-yl)-1H-indol-3-yl)-6-(1,3,5-trimethyl-1H-pyrazol-4-yl)-3,4-dihydropyrazino[1,2-a]indol-1(2H)-one], the Ki in assay [1] came out at 1.4 nM. Also, in assay [2] (setting [3]), the GI50 came out at 900 nM.

As to `Cc1cc(OCCCc2c3n(c4c(-c5c(C)nn(C)c5C)c(Cl)ccc24)[C@H](C)CN(c2cn(C)c4ccc(-c5cn6c(n5)CCC6)cc24)C3=O)cc(C)c1Cl` [Example 419, (R)-7-Chloro-10-(3-(4-chloro-3,5-dimethylphenoxy)propyl)-2-(5-(6,7-dihydro-5H-pyrrolo[1,2-a]imidazol-2-yl)-1-methyl-1H-indol-3-yl)-4-methyl-6-(1,3,5-trimethyl-1H-pyrazol-4-yl)-3,4-dihydropyrazino[1,2-a]indol-1(2H)-one], the Ki in assay [1] is 2.3 nM. Besides, the GI50 in assay [2] (H929 cells, 72 h, Cell TiterGlo, 10% FBS, read-out: GI50 on cellular proliferation of H929 human cancer cell lines) turned out to be 1100 nM.

Take `Cc1cc(OCCCc2c3n(c4c(-c5c(C)nn(C)c5C)c(Cl)ccc24)[C@H](C)CN(c2cn(C)c4ccc(-c5nc[nH]n5)cc24)C3=O)cc(C)c1Cl` [Example 420, (R)-7-Chloro-10-(3-(4-chloro-3,5-dimethylphenoxy)propyl)-4-methyl-2-(1-methyl-5-(1H-1,2,4-triazol-3-yl)-1H-indol-3-yl)-6-(1,3,5-trimethyl-1H-pyrazol-4-yl)-3,4-dihydropyrazino[1,2-a]indol-1(2H)-one]: the Ki in assay [1] turned out to be 2 nM. The GI50 in assay [2] (setting [3]) stood at 280 nM.

`Cc1cc(OCCCc2c3n(c4c(-c5c(C)nn(C)c5C)c(Cl)ccc24)[C@H](C)CN(c2cc(C(C)C)cc4cc(C(N)=O)n(C)c24)C3=O)cc(C)c1Cl` [Example 422, (R)-7-(7-Chloro-10-(3-(4-chloro-3,5-dimethylphenoxy)propyl)-4-methyl-1-oxo-6-(1,3,5-trimethyl-1H-pyrazol-4-yl)-3,4-dihydropyrazino[1,2-a]indol-2(1H)-yl)-5-isopropyl-1-methyl-1H-indole-2-carboxamide]: the Ki in assay [1] is under 1 nM. Further, the GI50 in assay [2] (setting [3]) came out at 830 nM.

In the case of `Cc1cc(OCCCc2c3n(c4c(-c5c(C)nn(C)c5C)c(Cl)ccc24)[C@H](C)CN(c2cn(C)c4ccc(-c5nnc(C6CC6)o5)cc24)C3=O)cc(C)c1Cl` [Example 423, (R)-7-Chloro-10-(3-(4-chloro-3,5-dimethylphenoxy)propyl)-2-(5-(5-cyclopropyl-1,3,4-oxadiazol-2-yl)-1-methyl-1H-indol-3-yl)-4-methyl-6-(1,3,5-trimethyl-1H-pyrazol-4-yl)-3,4-dihydropyrazino[1,2-a]indol-1(2H)-one], in assay [1], the Ki is 2.3 nM. Besides, in assay [2] (setting [3]), the GI50 was 1700 nM.

On to `Cc1cc(OCCCc2c3n(c4c(-c5c(C)nn(C)c5C)c(Cl)ccc24)[C@H](C)CN(c2cn(C)c4ccc(-c5cccnn5)cc24)C3=O)cc(C)c1Cl` [Example 424, (R)-7-Chloro-10-(3-(4-chloro-3,5-dimethylphenoxy)propyl)-4-methyl-2-(1-methyl-5-(pyridazin-3-yl)-1H-indol-3-yl)-6-(1,3,5-trimethyl-1H-pyrazol-4-yl)-3,4-dihydropyrazino[1,2-a]indol-1(2H)-one], for which the Ki in assay [1] amounted to 2.6 nM. Besides, in assay [2] (setting [3]), the GI50 stood at 1300 nM.

As for `Cc1cc(OCCCc2c3n(c4c(-c5c(C)nn(C)c5C)c(Cl)ccc24)[C@H](C)CN(c2ccnc4ccc(-c5nnn(C)n5)cc24)C3=O)cc(C)c1Cl` [Example 425, (R)-7-Chloro-10-(3-(4-chloro-3,5-dimethylphenoxy)propyl)-4-methyl-2-(6-(2-methyl-2H-tetrazol-5-yl)quinolin-4-yl)-6-(1,3,5-trimethyl-1H-pyrazol-4-yl)-3,4-dihydropyrazino[1,2-a]indol-1(2H)-one], in assay [1], the Ki turned out to be 1.8 nM. The GI50 in assay [2] (setting [3]) came to 1400 nM.

Regarding `Cc1cc(N2C[C@@H](C)n3c(c(CCCOc4cc(C)c(Cl)c(C)c4)c4ccc(Cl)c(-c5c(C)nc(CN6CCN(C)CC6)nc5C)c43)C2=O)c2c(c1)cc(C(=O)O)n2C` [Example 426, (R)-7-(7-Chloro-10-(3-(4-chloro-3,5-dimethylphenoxy)propyl)-6-(4,6-dimethyl-2-((4-methylpiperazin-1-yl)methyl)pyrimidin-5-yl)-4-methyl-1-oxo-3,4-dihydropyrazino[1,2-a]indol-2(1H)-yl)-1,5-dimethyl-1H-indole-2-carboxylic acid], in assay [1], the Ki was under 1 nM. For the same compound, the GI50 in assay [2] (setting [3]) was 250 nM.

Take `Cc1cc(OCCCc2c3n(c4c(-c5c(C)nn(C)c5C)c(Cl)ccc24)[C@H](C)CN(c2cn(C)c4ccc(C(=O)NNc5ccccc5)cc24)C3=O)cc(C)c1Cl` [Example 427, (R)-3-(7-Chloro-10-(3-(4-chloro-3,5-dimethylphenoxy)propyl)-4-methyl-1-oxo-6-(1,3,5-trimethyl-1H-pyrazol-4-yl)-3,4-dihydropyrazino[1,2-a]indol-2(1H)-yl)-1-methyl-N′-phenyl-1H-indole-5-carbohydrazide]: the Ki in assay [1] came out at 1.2 nM. The GI50 in assay [2] (setting [3]) was 490 nM.

On to `Cc1cc(OCCCc2c3n(c4c(-c5c(C)nn(C)c5C)c(Cl)ccc24)[C@H](C)CN(c2cn(C)c4ccc(C5=NCCO5)cc24)C3=O)cc(C)c1Cl` [Example 428, (R)-7-Chloro-10-(3-(4-chloro-3,5-dimethylphenoxy)propyl)-2-(5-(4,5-dihydrooxazol-2-yl)-1-methyl-1H-indol-3-yl)-4-methyl-6-(1,3,5-trimethyl-1H-pyrazol-4-yl)-3,4-dihydropyrazino[1,2-a]indol-1(2H)-one], for which the Ki in assay [1] is 2 nM. Moreover, the GI50 in assay [2] (setting [3]) came out at 920 nM.

`Cc1nc(-c2ccc3c(c2)c(N2C[C@@H](C)n4c(c(CCCOc5cc(C)c(Cl)c(C)c5)c5ccc(Cl)c(-c6c(C)nn(C)c6C)c54)C2=O)cn3C)no1` [Example 429, (R)-7-Chloro-10-(3-(4-chloro-3,5-dimethylphenoxy)propyl)-4-methyl-2-(1-methyl-5-(5-methyl-1,2,4-oxadiazol-3-yl)-1H-indol-3-yl)-6-(1,3,5-trimethyl-1H-pyrazol-4-yl)-3,4-dihydropyrazino[1,2-a]indol-1(2H)-one]: in assay [1], the Ki turned out to be 1.8 nM. For the same compound, the GI50 in assay [2] (setting [3]) is 970 nM.
